# Results taken from patent US20170216360A1, “METHODS AND COMPOSITIONS FOR IMPROVING HOMING OF CELLS INCLUDING MESENCHYMAL STEM CELLS” (SANOFI, priority 2014, published 2017).
# Structures can show the parent of a compound that is named as a salt.
# Assays:
# CD18 mRNA = CD18 mRNA analysis by qPCR in MSCs; assay type: cell-based, human; conditions: 3 μM
# Method: (§1) The mRNA levels of CD11a and CD18 in response to Ro-31-8425 pretreatment of MSCs were analyzed by qPCR. Specifically, MSCs were treated with Ro-31-8425 (3 μM) or vehicle control (0.1% DMSO) for 2 h, 4 h, 8 h, 14 h or 24 h. Cells were then trypsinized, washed with ice-cold PBS and pelleted (500 g for 5 min at 4° C.) at during the treatment and immediately stored at −80° C. RNA extraction was then performed. Briefly, the frozen cell pellet was crushed with a tissue pestle (Fisher Scientific) in the presence of 1 mL TRI RNA isolation reagent (Sigma Aldrich). Upon complete pellet dissociation, 0.2 mL chloroform was added and suspension was vortexed for 15 s, followed by incubation at ambient temperature for 10 min. The mixture was centrifuged at 15,000 g for 15 min at […], the resulting supernatant aqueous phase was removed, thoroughly mixed with 0.5 mL isopropanol (Sigma Aldrich) and further centrifuged (at 15,000 g for 10 min) to obtain the total RNA precipitates. The RNA pellets were washed twice in 75% ethanol, and air dried for 10 min at room temperature before being reconstituted with 20 uL ultrapure H2O. The quality and quantity of the total RNAs were measured and verified using Nanodrop ND-2000 Spectrophotometer (NanoDrop Products). Subsequently, equal amount of total RNA (2 μg) was reverse transcribed into cDNA using a QuantiTect reverse transcription kit (Qiagen). […]
# [1] = test system: LPS-induced inflamed mouse ear; assay: Ear thickness in LPS-induced ear inflammation after infusion of pretreated MSCs; assay type: in vivo
# Method: (§2) To determine the impact of small molecule pretreatment on MSC therapeutic potential, ear swelling was measured. As a baseline, we measured ear thickness of all mice to be used using a caliper (Mitutoyo Inc.) and found no difference. Each measurement was taken 3 times with the average value recorded, and care taken to ensure minimal compression. Inflammation was then induced by injection of 30 μg LPS in 30 μL 0.9% saline solution into the pinna of the left ear. 24 hours later, n=3 mice of each condition were infused with no MSCs, 10e6/20 g body weight MSCs pretreated for 24 hours with 0.1% DMSO, or 10e6/20 g body weight MSCs pretreated for 24 hours with 3.0 μM small molecule compound 1929. Upon 24 hours after cell infusion, ear thickness was measured using a caliper as before. To evaluate TNF-α secretion, inflammation and MSC treatment was performed as above with n=4-6 mice for each condition. Mice were sacrificed 24 hours after cell administration and both ears were harvested. Ears were then ground in ice-cold extraction buffer (RIPA with 0.5% Tween-20) using a homogenizer. Homogenates were transferred to 1.5 mL tubes, centrifuged at 13,000×g for 10 minutes at 4° C., and the supernatant was stored at −80° C. until analysis. The level of mouse TNF-α level in the samples was quantified using an anti-mouse TNF-α ELISA kit (Biolegend, San Diego, Calif.).
# CD11a mRNA = CD11a mRNA analysis by qPCR in MSCs; assay type: cell-based, human; conditions: 3 μM
# Method: as §1
# TNF-α = TNF-α ELISA of ear homogenates after infusion of pretreated MSCs; assay type: in vivo, mouse
# Method: as §2
# MSCs = assay: Cell viability assay, XTT; assay type: cell-based, human
# Method: Pre-confluent MSCs were incubated with Ro-31-8425 at the indicated concentrations for 24 h or 72 h and cell viability was assessed via an XTT assay according to manufacturer's instructions (ATCC).
# MSCs were pretreated with Ro-31-8425 for 24 h or 72 h, followed by quantification of MSC viability via XTT. (Y axis presents the percentage of viable cells compared to untreated control (cells incubated with 10% FBS-supplemented MEMa media), error bars represent standard deviation, n=3).
# [2] = test system: CD11a surface expression on MSCs; assay: CyTOF analysis of CD11a expression levels on MSCs; assay type: cell-based, human
# Method: To further confirm the screening results, the surface expression of CD11a was also examined by Time of Flight Mass Cytometry (CyTOF2, DVS Sciences) (Newell et al., 2013, Nat Biotechnol. 31(7):623-9). MSCs were treated with Ro-31-8425 as indicated and sample preparation was performed per manufacturer's instructions with slight modifications. Briefly, the harvested MSC pellet was first resuspended with Intercalator-103Rh solution (1 μM) in PBS to identify viable cells, then washed twice with MaxPar cell staining buffer and stained with 100 μL antibody cocktail (human Nd142-CD11a and Tb159-CD90, 1:200 dilution in staining buffer) for 30 min at room temperature. After two washes, the cells were further stained with 125 nM MaxPar Intercalator-Ir in MaxPar Fix and Perm buffer for 1-2 h with gentle shaking. Finally the fixed cells were thoroughly washed with ultrapure H2O 2O for three times (1000 g, 5 min each), resuspended in 300 μL H2O and filtered through a 40 μm Falcon cell strainer (Corning) prior to CyTOF data acquisition. The CyTOF data was analyzed with Cytobank on-line data analysis platform (website www cytobank.org).
# [3] = test system: CD11a surface expression on huMSCs; assay: Medium throughput screen: CD11a surface expression on MSCs, PE-CY5 anti-CD11a antibody, laser-scanning fluorescence microplate cytometer; assay type: cell-based, human
smiles,measurement,setting,value
"Cn1cc(C2=C(c3c4n(c5ccccc35)CCC(CN)C4)C(=O)NC2=O)c2ccccc21 (stereo not shown) [Compound 1929, 3-(8-aminomethyl-6,7,8,9-tetrahydro-pyrido[1,2-a]indol-10-yl)-4-(1-methyl-1H-indol-3-yl)-pyrrole-2,5-dione hydrochloride]",mRNA levels of CD18 in MSCs,CD18 mRNA,did not upregulate
same,Effect on ear swelling relative to control MSCs,[1]; 24 hours post administration,over 3 ×
same,Reduction in ear thickness,"[1]; 24 hours post administration of pretreated MSCs, vs no MSC",20.0±5.3 μm
same,Effect in reducing ear swelling relative to vehicle control MSCs,[1]; 24 h post-administration,greater than 3 fold
same,CD11a mRNA levels in MSCs,CD11a mRNA,significantly increased
same,Time of peak CD11a mRNA levels post incubation,CD11a mRNA,14 h
same,Reduction of increased TNF-α levels in the inflamed ear,TNF-α; 24 h after pretreated MSCs,~50%
same,"TNF-alpha levels in the inflamed ear, fold reduction",TNF-α; 24 hours after pretreated MSCs,2.6±0.5 fold
same,MSC viability,"MSCs; 0.25 to 4 μM, 24 h pretreatment",did not significantly compromise cell viability
same,Concentration levels at which toxicity to MSCs was seen,MSCs; 72 h pretreatment,greater than 4 μM
same,Time over which the percentage of CD11a-positive MSCs was stable,[2]; 3 μM for 24 h,at least 4 days
same,Percentage of CD11a-positive MSCs,"[2]; 0.1, 1, 3 and 10 μM for 24 hours",dose-dependent increase
same,Effect on the expression of other homing ligands,[3],no observed effect
